Measurements reported in US20200255478A1, “NOVEL COMPOUNDS ACTIVATING THE NRF2 PATHWAY” (Almirall, S.A., priority 2017, published 2020).
Starred links: 1 amine or outer side, 2 acyl side, 3 side chain; linkers in the order of their positions; H or OH if unused. Positions of bridges follow the written chain, without caps; N, C: chain ends. Non-standard residues stand in square brackets, D forms with d. Residues, ends and D or L forms follow the SMILES beside them. Trp(2-yl) = O=C([C@H](Cc1c([*:3])[nH]c2ccccc12)N[*:1])[*:2]; Phe(4-yl) = O=C([C@H](Cc1ccc([*:3])cc1)N[*:1])[*:2]; mXylylene = c1cc(C[*:1])cc(C[*:2])c1; pXylylene = c1cc(C[*:2])ccc1C[*:1]; βAla = NCCC(=O)O

Biological target: Keap1-Maltose Binding Protein (MBP tag) (Homo sapiens, UniProt Q14145)
Sequence (Q14145 whole entry): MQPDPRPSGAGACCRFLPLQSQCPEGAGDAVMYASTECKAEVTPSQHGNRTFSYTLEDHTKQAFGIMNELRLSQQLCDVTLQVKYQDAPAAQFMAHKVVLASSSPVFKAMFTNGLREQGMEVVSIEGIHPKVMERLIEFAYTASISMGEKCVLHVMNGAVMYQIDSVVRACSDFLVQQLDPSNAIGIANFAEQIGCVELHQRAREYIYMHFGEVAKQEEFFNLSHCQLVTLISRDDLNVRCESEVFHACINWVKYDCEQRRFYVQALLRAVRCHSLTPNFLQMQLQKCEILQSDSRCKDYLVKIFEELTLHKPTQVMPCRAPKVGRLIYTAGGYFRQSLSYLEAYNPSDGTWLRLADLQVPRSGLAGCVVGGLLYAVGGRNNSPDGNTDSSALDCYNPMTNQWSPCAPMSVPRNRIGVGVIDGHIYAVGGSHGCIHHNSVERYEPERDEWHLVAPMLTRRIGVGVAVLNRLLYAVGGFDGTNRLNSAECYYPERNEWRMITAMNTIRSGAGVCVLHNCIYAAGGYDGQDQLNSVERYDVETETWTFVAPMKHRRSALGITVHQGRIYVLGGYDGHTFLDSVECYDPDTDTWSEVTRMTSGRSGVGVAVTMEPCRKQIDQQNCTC
Test: Nrf2-Keap1 HTRF (TR-FRET) binding assay: displacement of biotinylated ETGE peptide from Keap1-MBP
Settings: not given

`CC(C)C[C@H](NC(=O)[C@@H]1CSc2[nH]c3ccccc3c2C[C@H](NC(=O)[C@H](CCC(N)=O)NC(=O)[C@@H](N)CC(C)C)C(=O)N[C@@H](CC(=O)O)C(=O)N[C@@H](CCC(=O)O)C(=O)N[C@@H](CCC(=O)O)C(=O)N[C@@H]([C@@H](C)O)C(=O)NCC(=O)N[C@@H](CCC(=O)O)C(=O)N1)C(=O)N1CCC[C@H]1C(=O)O` [Example 1, H-Leu-Gln-Trp(indol-2-yl-&^1)-Asp-Glu-Glu-Thr-Gly-Glu-Cys(&^1)-Leu-Pro-OH] (H-LQ[Trp(2-yl)]DEETGECLP-OH; thioether 3-10) and `CC(=O)N[C@H]1Cc2c([nH]c3ccccc23)SC[C@@H](C(N)=O)NC(=O)[C@H](CCC(=O)O)NC(=O)CNC(=O)[C@H]([C@@H](C)O)NC(=O)[C@H](CCC(=O)O)NC(=O)[C@H](CCC(=O)O)NC(=O)[C@H](CC(=O)O)NC1=O` [Example 7, Acetyl-Trp(indol-2-yl-&^1)-Asp-Glu-Glu-Thr-Gly-Glu-Cys(&^1)-NH2] (Ac-[Trp(2-yl)]DEETGEC-NH2; thioether 1-8) fall in the same range of IC50: 1 to 100 nM for the first, 1 to 100 nM for the second.

First: CC(C)C[C@@H]1NC(=O)[C@@H]2CCCN2C(=O)[C@H](CC(C)C)NC(=O)[C@@H]2CSCc3cccc(c3)CSC[C@H](NC(=O)[C@H](CCC(N)=O)NC1=O)C(=O)N[C@@H](CC(=O)O)C(=O)N[C@@H](CCC(=O)O)C(=O)N[C@@H](CCC(=O)O)C(=O)N[C@@H]([C@@H](C)O)C(=O)NCC(=O)N[C@@H](CCC(=O)O)C(=O)N2 [Example 4, {[&^1Leu-Gln-Cys(&^2)-Asp-Glu-Glu-Thr-Gly-Glu-Cys(&^3)-Leu-Pro&^1][&^2(1,3-phenylenediyl)dimethylene&^3]}] (cyclo(CDEETGECLPLQ); linker 1-8 via mXylylene)
Second: CC(C)C[C@@H]1NC(=O)[C@@H]2CCCN2C(=O)[C@H](CC(C)C)NC(=O)[C@@H]2CSCc3ccc(cc3)CSC[C@H](NC(=O)[C@H](CCC(N)=O)NC1=O)C(=O)N[C@@H](CC(=O)O)C(=O)N[C@@H](CCC(=O)O)C(=O)N[C@@H](CCC(=O)O)C(=O)N[C@@H]([C@@H](C)O)C(=O)NCC(=O)N[C@@H](CCC(=O)O)C(=O)N2 [Example 5, {[&^1Leu-Gln-Cys(&^2)-Asp-Glu-Glu-Thr-Gly-Glu-Cys(&^3)-Leu-Pro&^1][&^2(1,4-phenylenediyl)dimethylene&^3]}] (cyclo(CDEETGECLPLQ); linker 1-8 via pXylylene)
The IC50 of the first is lower: < 1 nM for the first, 1 to 100 nM for the second. The first is the more potent here.

`CC(C)C[C@@H]1NC(=O)[C@@H]2CCCN2C(=O)[C@H](CC(C)C)NC(=O)[C@@H]2CSc3[nH]c4ccccc4c3C[C@H](NC(=O)[C@H](CCC(N)=O)NC1=O)C(=O)N[C@@H](CC(=O)O)C(=O)N[C@@H](CCC(=O)O)C(=O)N[C@@H](CCC(=O)O)C(=O)N[C@@H]([C@@H](C)O)C(=O)NCC(=O)N[C@@H](CCC(=O)O)C(=O)N2` [Example 11, &^1Leu-Gln-Trp(indol-2-yl-&^2)-Asp-Glu-Glu-Thr-Gly-Glu-Cys(&^2)-Leu-Pro&^1] (cyclo(CLPLQ[Trp(2-yl)]DEETGE); thioether 1-6) and `CC(C)C[C@@H]1NC(=O)[C@@H]2CCCN2C(=O)[C@H](CC(C)C)NC(=O)[C@@H]2CSCc3cccc(c3)CSC[C@H](NC(=O)[C@H](CCC(N)=O)NC1=O)C(=O)N[C@@H](CC(=O)O)C(=O)N[C@@H](C)C(=O)N[C@@H](CCC(=O)O)C(=O)N[C@@H]([C@@H](C)O)C(=O)NCC(=O)N[C@@H](CCC(=O)O)C(=O)N2` [Example 17] (cyclo(AETGECLPLQCD); linker 6-11 via mXylylene) fall in the same range of IC50: 1 to 100 nM for the first, 1 to 100 nM for the second.

Same assay, conditions: HTRF (TR-FRET); displacement of ETGE-biotin from Keap1-MBP; values banded into grades; read-out: Binding (IC50) ETGE-Keap1

Compared with `CC(C)C[C@H](NC(=O)[C@@H]1CSCc2ccc(cc2)CSC[C@H](NC(=O)[C@H](CCC(N)=O)NC(=O)[C@@H](N)CC(C)C)C(=O)N[C@@H](CC(=O)O)C(=O)N[C@@H](CCC(=O)O)C(=O)N[C@@H](CCC(=O)O)C(=O)N[C@@H]([C@@H](C)O)C(=O)NCC(=O)N[C@@H](CCC(=O)O)C(=O)N1)C(=O)N1CCC[C@H]1C(=O)O` [Example 2, {[H-Leu-Gln-Cys(&^1)-Asp-Glu-Glu-Thr-Gly-Glu-Cys(&^2)-Leu-Pro-OH][&^1(1,4-phenylenediyl)dimethylene&^2]}] (H-LQCDEETGECLP-OH; linker 3-10 via pXylylene), `CC(C)C[C@H](NC(=O)[C@@H]1CSCc2cccc(c2)CSC[C@H](NC(=O)[C@H](CCC(N)=O)NC(=O)[C@@H](N)CC(C)C)C(=O)N[C@@H](CC(=O)O)C(=O)N[C@@H](CCC(=O)O)C(=O)N[C@@H](CCC(=O)O)C(=O)N[C@@H]([C@@H](C)O)C(=O)NCC(=O)N[C@@H](CCC(=O)O)C(=O)N1)C(=O)N1CCC[C@H]1C(=O)O` [Example 3, {[H-Leu-Gln-Cys(&^1)-Asp-Glu-Glu-Thr-Gly-Glu-Cys(&^2)-Leu-Pro-OH][&^1(1,3-phenylenediyl)dimethylene&^2]}] (H-LQCDEETGECLP-OH; linker 3-10 via mXylylene) is lower in IC50: 100 to 5000 nM for the first, 1 to 100 nM for the second.

`CC(C)C[C@H](NC(=O)[C@@H]1CSc2[nH]c3ccccc3c2C[C@H](NC(=O)[C@H](CCC(N)=O)NC(=O)[C@@H](N)CC(C)C)C(=O)N[C@@H](CC(=O)O)C(=O)N[C@@H](CCC(=O)O)C(=O)N[C@@H](CCC(=O)O)C(=O)N[C@@H]([C@@H](C)O)C(=O)NCC(=O)N[C@@H](CCC(=O)O)C(=O)N1)C(=O)N1CCC[C@H]1C(=O)NCCC(=O)N[C@@H](CCCNC(=N)N)C(=O)N[C@@H](CCCCN)C(=O)N[C@@H](CCCCN)C(=O)N[C@@H](CCCNC(=N)N)C(=O)N[C@@H](CCCNC(=N)N)C(=O)N[C@@H](CCC(N)=O)C(=O)N[C@@H](CCCNC(=N)N)C(=O)N[C@@H](CCCNC(=N)N)C(=O)N[C@@H](CCCNC(=N)N)C(N)=O` [Example 8] and `CC(C)C[C@H](NC(=O)[C@@H]1CSCc2cccc(c2)CSC[C@H](NC(=O)[C@H](CCC(N)=O)NC(=O)[C@@H](N)CC(C)C)C(=O)N[C@@H](CC(=O)O)C(=O)N[C@@H](CCC(=O)O)C(=O)N[C@@H](CCC(=O)O)C(=O)N[C@@H]([C@@H](C)O)C(=O)NCC(=O)N[C@@H](CCC(=O)O)C(=O)N1)C(=O)N1CCC[C@H]1C(=O)NCCC(=O)N[C@@H](CCCNC(=N)N)C(=O)N[C@@H](CCCCN)C(=O)N[C@@H](CCCCN)C(=O)N[C@@H](CCCNC(=N)N)C(=O)N[C@@H](CCCNC(=N)N)C(=O)N[C@@H](CCC(N)=O)C(=O)N[C@@H](CCCNC(=N)N)C(=O)N[C@@H](CCCNC(=N)N)C(=O)N[C@@H](CCCNC(=N)N)C(N)=O` [Example 9] fall in the same range of IC50: 1 to 100 nM for the first, 1 to 100 nM for the second.

First: CC(=O)N[C@H]1Cc2ccc(cc2)SC[C@@H](C(N)=O)NC(=O)[C@H](CCC(=O)O)NC(=O)CNC(=O)[C@H]([C@@H](C)O)NC(=O)[C@H](CCC(=O)O)NC(=O)[C@H](CCC(=O)O)NC(=O)[C@H](CC(=O)O)NC1=O [Example 10, Acetyl-Phe(p-&^1)-Asp-Glu-Glu-Thr-Gly-Glu-Cys(&^1)-NH2] (Ac-[Phe(4-yl)]DEETGEC-NH2; thioether 1-8)
Second: CC(C)C[C@H](NC(=O)[C@@H]1CSCc2cccc(c2)CSC[C@H](NC(=O)[C@H](CCC(N)=O)NC(=O)[C@@H](N)CC(C)C)C(=O)N[C@@H](CC(=O)O)C(=O)N[C@@H](C)C(=O)N[C@@H](CCC(=O)O)C(=O)N[C@@H]([C@@H](C)O)C(=O)NCC(=O)N[C@@H](CCC(=O)O)C(=O)N1)C(=O)N1CCC[C@H]1C(=O)O [Example 14, {[H-Leu-Gln-Cys(&^1)-Asp-Ala-Glu-Thr-Gly-Glu-Cys(&^2)-Leu-Pro-OH][&^1(1,3-phenylenediyl)dimethylene&^2]}] (H-LQCDAETGECLP-OH; linker 3-10 via mXylylene)
The IC50 of the first is higher: 100 to 5000 nM for the first, < 1 nM for the second. The second is the more potent here.

`CC(C)C[C@H](NC(=O)[C@@H]1CSCc2cccc(c2)CSC[C@H](NC(=O)[C@H](CCC(N)=O)NC(=O)[C@@H](N)CC(C)C)C(=O)N[C@@H](CC(=O)O)C(=O)N[C@@H](CCC(=O)O)C(=O)N[C@@H](CCC(=O)O)C(=O)N[C@@H]([C@@H](C)O)C(=O)NCC(=O)N[C@@H](CCC(=O)O)C(=O)N1)C(=O)N1CCC[C@H]1C(=O)NCCC(=O)N[C@@H](Cc1ccc(O)cc1)C(=O)N[C@@H](C)C(=O)N[C@@H](CCCNC(=N)N)C(=O)N[C@@H](C)C(=O)N[C@@H](C)C(=O)N[C@@H](C)C(=O)N[C@@H](CCCNC(=N)N)C(=O)N[C@@H](CCC(N)=O)C(=O)N[C@@H](C)C(=O)N[C@@H](CCCNC(=N)N)C(=O)N[C@@H](C)C(N)=O` [Example 13] (H-LQCDEETGECLP[βAla]YARAAARQARA-NH2; linker 3-10 via mXylylene) and `CC(C)C[C@H](NC(=O)[C@@H]1CSCc2cccc(c2)CSC[C@H](NC(=O)[C@H](CCC(N)=O)NC(=O)[C@@H](N)CC(C)C)C(=O)N[C@@H](CC(=O)O)C(=O)N[C@@H](C)C(=O)N[C@@H](CCC(=O)O)C(=O)N[C@@H]([C@@H](C)O)C(=O)NCC(=O)N[C@@H](CCC(=O)O)C(=O)N1)C(=O)N1CCC[C@H]1C(=O)NCCC(=O)N[C@@H](Cc1ccc(O)cc1)C(=O)N[C@@H](C)C(=O)N[C@@H](CCCNC(=N)N)C(=O)N[C@@H](C)C(=O)N[C@@H](C)C(=O)N[C@@H](C)C(=O)N[C@@H](CCCNC(=N)N)C(=O)N[C@@H](CCC(N)=O)C(=O)N[C@@H](C)C(=O)N[C@@H](CCCNC(=N)N)C(=O)N[C@@H](C)C(N)=O` [Example 15] (H-LQCDAETGECLP[βAla]YARAAARQARA-NH2; linker 3-10 via mXylylene) fall in the same range of IC50: 1 to 100 nM for the first, 1 to 100 nM for the second.

First: CC(C)C[C@H](NC(=O)[C@@H]1CSCc2cccc(c2)CSC[C@H](NC(=O)[C@H](CCC(N)=O)NC(=O)[C@@H](N)CC(C)C)C(=O)N[C@@H](CC(=O)O)C(=O)N[C@@H](C)C(=O)N[C@@H](CCC(=O)O)C(=O)N[C@@H]([C@@H](C)O)C(=O)NCC(=O)N[C@@H](CCC(=O)O)C(=O)N1)C(=O)N1CCC[C@H]1C(=O)NCCC(=O)N[C@@H](CCCNC(=N)N)C(=O)N[C@@H](CCCCN)C(=O)N[C@@H](CCCCN)C(=O)N[C@@H](CCCNC(=N)N)C(=O)N[C@@H](CCCNC(=N)N)C(=O)N[C@@H](CCC(N)=O)C(=O)N[C@@H](CCCNC(=N)N)C(=O)N[C@@H](CCCNC(=N)N)C(=O)N[C@@H](CCCNC(=N)N)C(N)=O [Example 16]
Second: CC(C)C[C@H](NC(=O)[C@@H]1CSCc2ccccc2CSC[C@H](NC(=O)[C@H](CCC(N)=O)NC(=O)[C@@H](N)CC(C)C)C(=O)N[C@@H](CC(=O)O)C(=O)N[C@@H](C)C(=O)N[C@@H](CCC(=O)O)C(=O)N[C@@H]([C@@H](C)O)C(=O)NCC(=O)N[C@@H](CCC(=O)O)C(=O)N1)C(=O)N1CCC[C@H]1C(=O)NCCC(=O)N[C@@H](CCCNC(=N)N)C(=O)N[C@@H](CCCCN)C(=O)N[C@@H](CCCCN)C(=O)N[C@@H](CCCNC(=N)N)C(=O)N[C@@H](CCCNC(=N)N)C(=O)N[C@@H](CCC(N)=O)C(=O)N[C@@H](CCCNC(=N)N)C(=O)N[C@@H](CCCNC(=N)N)C(=O)N[C@@H](CCCNC(=N)N)C(N)=O [Example 18]
The IC50 of the first is lower: < 1 nM for the first, 1 to 100 nM for the second. The first is the more potent here.
